# Laboratory results: publication PMC6982876, “Synthesis of Novel Benzodifuranyl; 1,3,5-Triazines; 1,3,5-Oxadiazepines; and Thiazolopyrimidines Derived from Visnaginone and Khellinone as Anti-Inflammatory and Analgesic Agents” (Molecules, 2020)
# Marks after values point to notes of the source that are not given here.
# How the values were obtained:
# human recombinant COX-2 = target: T1, human recombinant COX-2 (Homo sapiens, UniProt P35354); assay: In vitro COX inhibitor screening assay (EIA kit, Cayman), COX-2; type: biochemical; conditions: for COX2 (SI) selectivity index: COX-1 IC50 / COX-2 IC50; for IC50: COX-2, mean of two determinations, enzyme kit, read-out: COX2 IC50
# T1 construct: purchased Cayman Chemical, Ann Arbor, MI, USA 560131
# T1 sequence (P35354 18-604): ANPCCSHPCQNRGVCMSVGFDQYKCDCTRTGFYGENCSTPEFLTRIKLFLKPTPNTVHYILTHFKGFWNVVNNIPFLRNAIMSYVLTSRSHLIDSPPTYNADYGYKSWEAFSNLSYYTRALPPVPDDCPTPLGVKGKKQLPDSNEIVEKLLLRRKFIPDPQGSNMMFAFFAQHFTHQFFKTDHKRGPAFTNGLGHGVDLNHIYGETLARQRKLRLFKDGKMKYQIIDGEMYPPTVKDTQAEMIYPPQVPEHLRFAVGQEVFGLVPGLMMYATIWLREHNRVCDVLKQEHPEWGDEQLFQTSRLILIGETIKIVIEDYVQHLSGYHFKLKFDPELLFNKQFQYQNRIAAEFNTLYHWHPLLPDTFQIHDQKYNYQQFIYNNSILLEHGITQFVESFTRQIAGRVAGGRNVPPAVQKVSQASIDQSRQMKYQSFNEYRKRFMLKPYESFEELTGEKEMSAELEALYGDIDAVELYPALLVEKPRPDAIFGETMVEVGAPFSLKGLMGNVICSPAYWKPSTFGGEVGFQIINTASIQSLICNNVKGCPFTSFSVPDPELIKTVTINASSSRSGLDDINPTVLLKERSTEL
# Description: (§1) Furthermore, the selectivity index for COX-2 (COX-1 IC50 / COX-2 IC50) was calculated for the compounds.
# ovine COX-1 = target: T2, ovine COX-1 (Ovis aries, UniProt P05979); assay: In vitro COX inhibitor screening assay (EIA kit, Cayman), COX-1; type: biochemical; conditions: mean of two determinations, enzyme kit, read-out: COX1 IC50
# T2 construct: purchased Cayman Chemical, Ann Arbor, MI, USA 560131
# T2 sequence (P05979 25-600): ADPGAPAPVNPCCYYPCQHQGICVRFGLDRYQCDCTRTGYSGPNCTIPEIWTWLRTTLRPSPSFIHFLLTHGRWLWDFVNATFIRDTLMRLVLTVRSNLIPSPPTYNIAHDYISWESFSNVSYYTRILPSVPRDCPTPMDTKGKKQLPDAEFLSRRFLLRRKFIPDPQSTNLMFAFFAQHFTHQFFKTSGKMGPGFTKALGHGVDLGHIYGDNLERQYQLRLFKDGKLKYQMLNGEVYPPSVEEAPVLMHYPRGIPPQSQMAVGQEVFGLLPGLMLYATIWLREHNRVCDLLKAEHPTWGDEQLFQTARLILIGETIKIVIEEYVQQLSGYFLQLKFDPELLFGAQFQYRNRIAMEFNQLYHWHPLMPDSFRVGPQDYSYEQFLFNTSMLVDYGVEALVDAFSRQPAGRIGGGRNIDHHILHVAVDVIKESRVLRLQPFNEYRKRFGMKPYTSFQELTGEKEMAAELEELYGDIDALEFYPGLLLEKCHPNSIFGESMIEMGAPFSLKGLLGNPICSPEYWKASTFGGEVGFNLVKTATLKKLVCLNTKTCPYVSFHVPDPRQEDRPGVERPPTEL
# Description: as §1
# [1] = tested on: acetic acid-induced writhing in mice; assay: Acetic acid-induced writhing test (analgesic activity); type: in vivo; conditions: 10 mg/kg p.o.; for Writhing Number in 20 min (Mean ± SEM): acetic acid 1 h after dosing; for Analgesic Activity (% protection): writhing test
# Description: The analgesic activity of the compounds was performed using the writhing test as described by Gawade et al.. Mice weight ranged from 25 to 30 g. Then, mice were divided into 18 different groups, each containing five animals. The animals fasted for 8 h before the experiment. Administration of the compounds (10 mg/kg, p.o.) was performed orally. Equal doses of diclofenac as the reference drug and saline as a negative control were also administrated orally. Writhing was induced one hour after compound administration by using 0.1 mL of 1% glacial acetic acid at a volume of 0.1 mL/10 g body weight. The number of writhing responses (stretching of the abdomen, extension of hind limbs, twisting of the trunk, and elongation of the body) observed was counted for 20 min. The protection percentile against acetic acid-induced writhing was calculated according to the following formula: (1) Analgesic activity (%) =n−n′/n×100* where n is the mean number of writhes of the control group, and n’ is the mean number of writhes of the tested compound group.
# [2] = tested on: carrageenan-induced paw edema in rats; assay: Carrageenan-induced paw edema (anti-inflammatory activity); type: in vivo; conditions: 10 mg/kg oral; for % Change in Paw Height (Mean ± SEM): n = 5
# Description: Albino rats (150–180 g) were used. The rats were divided into 11 experimental groups of five rats each. One hour after oral administration of the compounds (10 mg/kg), 0.1 mL of 1% carrageenan solution was injected in the left hind paw of each animal. Rat paw volumes were measured with a digital caliber plethysmometer (UGO Basile, Varese, Italy) used to measure inflammation height at 0, 1, 2, and 3 h after carrageenan injection. The percentage increase in inflammation in the left hind paw, in comparison to the uninjected right hind paw, was determined, calculated, and expressed as the amount of inflammation. […] The anti-inflammatory activity of the selected analgesic compounds after 3 h was expressed as percentage inhibition of edema, which was calculated according to the following equation: (2) Inhibition of edema (%) =Vcont−Vtest/Vcont×100* where V cont is the edema volume in the control group, and V test is the edema volume in the group of the screened compound.
SMILES,melting point,COX2 (SI) selectivity index (human recombinant COX-2),IC50 (human recombinant COX-2),IC50 (ovine COX-1),Writhing Number in 20 min (Mean ± SEM) ([1]; n = 5),Analgesic Activity (% protection) ([1]; n = 5),% Change in Paw Height (Mean ± SEM) ([2]; 1 hr after carrageenan),% Change in Paw Height (Mean ± SEM) ([2]; 2 hr after carrageenan),Anti-Inflammatory Activity (% Inhibition of Edema) ([2]; 3 hr after carrageenan),% Change in Paw Height (Mean ± SEM) ([2]; 3 hr after carrageenan),"Analgesic Activity (% protection) ([1]; n = 5, 10 mg/kg)","Analgesic Activity (% protection) ([1]; n = 5, listed as sodium diclofenac, 10 mg/kg)"
"COc1c2ccoc2cc2oc(C(Cl)=Nc3cc(Cl)nc(SC)n3)c(C)c12 [Compound 9a, N-(6-chloro-2-(methylthio)pyrimidin-4-yl)-4-methoxy-3-methylbenzo [1,2-b: 5,4-b`] difuran-2-carbimidoyl chloride]",> 350 °C,70,0.17 µM,12 µM,"45 ± 2.4 ^a,b",30 ± 1.05%,0.35 ± 0.01 ^a %,0.28 ± 0.02 ^a %,45%,0.33 ± 0.02 ^a %,–,–
"COc1c2ccoc2cc2oc(C(=O)Nc3cc(=O)n4c(n3)SCC4=O)c(C)c12 [Compound 7a, N-(3,5-dioxo-2,3-dihydro-5H-thiazolo [3,2-a]pyrimidin-7-yl)-4-methoxy-3-methylbenzo [1,2-b: 5,4-b`] difuran-2-carboxamide]",308 to 310 °C,79,0.101 µM,7.95 µM,"42 ± 1.8 ^a,b",33 ± 1.70%,0.31 ± 0.01 ^a %,0.26 ± 0.02 ^a %,50%,0.30 ± 0.02 ^a %,–,–
"COc1c2occc2c(OC)c2c(C)c(C(Cl)=Nc3cc(Cl)nc(SC)n3)oc12 [Compound 9b, N-(6-chloro-2-(methylthio)pyrimidin-4-yl)-4,8-dimethoxy-3-methylbenzo [1,2-b: 5,4-b`] difuran-2-carbimidoyl chloride]",> 350 °C,72,0.155 µM,11.1 µM,"44 ± 2.5 ^a,b",32 ± 1.2%,0.33 ± 0.02 ^a %,0.27 ± 0.01 ^a %,48%,0.31 ± 0.01 ^a %,–,–
"COc1c2ccoc2cc2oc(C(=O)Nc3cc(=O)[nH]c(SCC(=O)O)n3)c(C)c12 [Compound 6a, 2-((4-(4-methoxy-3-methylbenzo [1,2-b: 5,4-b`]difuran-2-carboxamido)-6-oxo-1,6-dihydropyrimidin-2-yl)thio) acetic acid]",278 to 280 °C,51,0.345 µM,17.5 µM,"50 ± 1.6 ^a,b",25 ± 0.50%,0.39 ± 0.01 ^a %,0.32 ± 0.02 ^a %,35%,0.41 ± 0.02 ^a %,–,–
"O=C(O)Cc1ccccc1Nc1c(Cl)cccc1Cl [Diclofenac, reference compound]",–,–,–,–,25 ± 1.2 ^a,–,–,0.13 ± 0.02 ^a %,63%,0.20 ± 0.01 ^a %,51 ± 1.15 ^a %,51%
